Measurements from patent publication US9127016B2, “Small molecule inhibitors of Dusp6 and uses therefor” (University of Pittsburgh—Of the Commonwealth System of …, priority 2009, dated 2015).

Assays:
[1] = tested on: FGF signaling (d2EGFP reporter); test: BCI analog SAR: d2EGFP intensity in transgenic zebrafish embryos by densitometry; type: in vivo; conditions: 20 μM, 24 hpf embryos, 6 h; for Activity (BCI = 100): d2EGFP intensity in the dorsal region
Method: Transgenic zebrafish embryos (24 hpf) were treated with 20 μM solution of BCI analogs in 0.5% aq DMSO and fluorescence photomicrographs were taken after 6 h. The effectiveness of BCI analogs was evaluated by densitometry (ImageJ) of d2EGFP intensity in the dorsal region.

[2] = tested on: FGF signaling (Tg(Dusp6:d2EGFP)pt6 reporter); test: Transgenic zebrafish chemical screen, d2EGFP fluorescence; type: in vivo; conditions: 24 hpf embryos, 6-8 hours; analogs even at four-fold higher concentrations
Method: Tg(dusp6:d2EGFP)pt6 embryos were obtained by natural crossings and incubated at 28.5° C. until they reached 24 hpf. Five transgenic embryos were placed into each well from a 96-well plate in 200 μl of E3, and a 0.5% DMSO solution was added along with compound from each library at 10 μM. The NCI diversity set (NCl/NIH), the Natural Products library (MicroSource Discovery Systems Inc.) and Phosphatase targeted set (Chembridge) were screened in this study. (E)-2-Benzylidene-3-(cyclohexylamino)-2,3-dihydro-1H-inden-1-one (BCI; also known as NSC150117) was identified as a compound that enhanced fluorescence in treated transgenic embryos. Treated embryos were photographed under the same settings for exposure, gain and magnification for each picture using a MZFLIII (Leica) microscrope and fluorescent illumination for GFP using endow cube (Chroma Technology Corp., Rockingham, Vt.). Qimaging software and the Retiga Exi camera (Qimaging, Burnaby, BC Canada) were used to capture the images.
We previously described the generation of a transgenic zebrafish line, (Tg(Dusp6:d2EGFP)pt6) that expresses destabilized green fluorescent protein (d2EGFP) under the control of FGF signaling (Molina, G. A., et al. BMC Dev Biol 7, 62 (2007)). Using Tg(Dusp6:d2EGFP) embryos as a biosensor for FGF signaling, we screened over 5000 diverse compounds assembled from chemical libraries for small molecule modulators of this pathway. Five transgenic embryos at 24 hours post fertilization (hpf) were arrayed into each well of a 96-well plate containing test compounds at 10 μM. d2EGFP intensity in treated embryos was visually analyzed and compared to vehicle control (0.5% DMSO) after 6-8 hours. […] To confirm that BCI hyperactivated FGF signaling, we treated embryos prior to gastrulation (5 hpf), and we analyzed by whole mount in situ hybridization, the expression of ntl (zebrafish brachyury), a known FGF target gene (Latinkic, B. V. et al. Genes Dev 11, 3265-76 (1997)). […] We next determined the BCI structural features required to enhance FGF signaling. Two analogs, (E)-2-benzylidene-2,3-dihydro-1H-inden-1-one (BI) lacking the cyclohexylamino group, and 3-(cyclohexylamino)-2,3-dihydro-1H-inden-1-one (ICD) lacking the benzylidene group were synthesized).

Cdc25B = target: T1, Cdc25B (Homo sapiens, UniProt P30305); test: OMFP phosphatase assay, Cdc25B; type: biochemical; conditions: 100 μM, positive control
T1 sequence (P30305 1-580): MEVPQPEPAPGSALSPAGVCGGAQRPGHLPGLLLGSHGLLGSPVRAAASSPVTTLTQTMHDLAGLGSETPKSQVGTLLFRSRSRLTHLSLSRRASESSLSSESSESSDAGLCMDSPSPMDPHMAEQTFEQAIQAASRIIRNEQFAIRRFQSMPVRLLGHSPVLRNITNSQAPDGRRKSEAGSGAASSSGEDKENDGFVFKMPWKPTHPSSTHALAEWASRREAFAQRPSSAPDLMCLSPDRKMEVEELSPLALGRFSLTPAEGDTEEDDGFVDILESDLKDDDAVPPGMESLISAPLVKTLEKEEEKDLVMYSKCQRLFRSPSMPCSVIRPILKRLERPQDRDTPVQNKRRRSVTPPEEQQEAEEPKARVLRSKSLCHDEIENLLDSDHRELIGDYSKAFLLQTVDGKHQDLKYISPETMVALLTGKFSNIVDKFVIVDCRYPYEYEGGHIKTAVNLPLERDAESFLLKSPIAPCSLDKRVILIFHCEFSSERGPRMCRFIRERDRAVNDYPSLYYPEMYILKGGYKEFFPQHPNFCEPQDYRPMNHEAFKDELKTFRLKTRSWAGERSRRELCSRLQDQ
Method: (§1) Enzyme activities in the presence or absence of BCI were measured using the artificial substrate […] at concentrations equal to the Km of each enzyme (Cdc25B, PTP1B & Dusp3/VHR) and at optimal pH for individual enzyme activity in a 96-well microtiter plate assay based on previously described methods by Lazo et al. (J Med Chem 44, 4042-9 (2001) and Lazo, J. S. et al. Bioorg Med Chem 14, 5643-50 (2006)). Briefly, the standard assay conditions contained 0.02 mg/ml OMFP in assay buffer (30 mM Tris-HCl (pH8.0), 75 mM NaCl, 1 mM EDTA, 0.33% BSA and 1 mM DTT). Fluorescence emission was measured after a sixty-minute incubation period at ambient temperature using a multiwell plate reader (SpectraMax m5, […]; excitation 485 nm, emission 525 nm). Sodium orthovanadate (100 μM) was used as a positive control for full phosphatase inhibition. IC50 concentrations were determined from three experiments using 10 concentrations of BCI ranging from 300 μM to 15.2 nM and GraphPad Prism 5.0 software.

PTP1B = target: T2, PTP1B (Homo sapiens, UniProt P18031); test: OMFP phosphatase assay, PTP1B; type: biochemical; conditions: 100 μM, positive control
T2 sequence (P18031 1-435): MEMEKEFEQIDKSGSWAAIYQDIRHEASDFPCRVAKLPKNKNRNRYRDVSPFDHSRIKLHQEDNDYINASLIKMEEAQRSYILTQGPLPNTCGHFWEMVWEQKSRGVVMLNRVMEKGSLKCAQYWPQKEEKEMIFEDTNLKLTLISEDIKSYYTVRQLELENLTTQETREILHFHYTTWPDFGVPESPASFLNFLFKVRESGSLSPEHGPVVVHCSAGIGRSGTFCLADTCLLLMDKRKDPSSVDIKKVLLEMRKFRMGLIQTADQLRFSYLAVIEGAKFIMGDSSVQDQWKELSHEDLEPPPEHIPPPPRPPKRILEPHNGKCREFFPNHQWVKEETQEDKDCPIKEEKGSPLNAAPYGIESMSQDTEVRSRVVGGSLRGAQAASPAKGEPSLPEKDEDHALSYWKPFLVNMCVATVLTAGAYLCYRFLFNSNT
Method: as §1

Dusp3/VHR = Dusp3/VHR (Homo sapiens, UniProt P51452); test: OMFP phosphatase assay, Dusp3/VHR; type: biochemical; conditions: 100 μM, positive control
Method: as §1

Dusp6 = target: T3, Dusp6 (Homo sapiens, UniProt Q16828); test: Basal Dusp6 dephosphorylation of OMFP; type: biochemical; design: His; made in house
T3 sequence (Q16828 1-381): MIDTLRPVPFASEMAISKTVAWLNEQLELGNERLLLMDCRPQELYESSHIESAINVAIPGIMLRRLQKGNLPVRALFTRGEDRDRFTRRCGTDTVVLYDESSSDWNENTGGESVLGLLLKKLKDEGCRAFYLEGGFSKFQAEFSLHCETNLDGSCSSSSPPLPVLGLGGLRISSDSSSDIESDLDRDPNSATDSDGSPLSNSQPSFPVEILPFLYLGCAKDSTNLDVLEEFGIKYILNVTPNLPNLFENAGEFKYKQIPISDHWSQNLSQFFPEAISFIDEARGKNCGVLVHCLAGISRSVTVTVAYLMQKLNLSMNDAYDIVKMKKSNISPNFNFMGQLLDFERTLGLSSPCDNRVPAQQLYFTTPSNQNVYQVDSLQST
Method: For OMFP based ERK2 induced activation of Dusp6, recombinant His-tagged Dusp6 was expressed from a bacterial expression vector and 250 ng were incubated with the indicated concentrations of NSC95397 or BCI. OMFP was added at its apparent Km (100 μM) (Vogt, A. et al. J Biol Chem 280, 19078-86 (2005)). The final reaction volume was 15 μl. After 1 h at RT, OMF fluorescence was measured on an M5 multimode reader (Molecular Devices) at excitation/emission wavelengths of 485/525 nm. To assay activated Dusp6, 210 ng or 2.1 μg of recombinant ERK2 (Cell signaling) were added to Dusp6(210 ng)/BCI(100 μM) mixtures to measure activation at 1:1 and 1:10 ratio of substrate to enzyme. OMFP was immediately added and fluorescence (ex485/em525 nm) was read every 10 min for 130 min. Fold activation was calculated at 60 mins in each experiment.

Dusp3/VHR, sequence (P51452 whole entry): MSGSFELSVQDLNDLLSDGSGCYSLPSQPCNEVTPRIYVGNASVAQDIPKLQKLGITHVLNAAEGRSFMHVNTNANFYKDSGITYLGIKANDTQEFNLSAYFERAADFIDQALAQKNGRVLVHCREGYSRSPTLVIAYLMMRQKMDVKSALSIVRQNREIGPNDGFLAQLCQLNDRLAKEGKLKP

Compound	Activity (BCI = 100) [1]	further results
CN1CCN(C2/C(=C\c3ccccc3)C(=O)c3ccccc32)CC1 (stereo not shown) [Compound 12]	0	
N#Cc1ccc(/C=C2/C(=O)c3ccccc3C2NC2CCCCC2)cc1 (stereo not shown) [Compound 15]	20	activity as compared to BCI [1]: 20%
O=C1/C(=C/c2ccccc2)C(N2CCCCC2)c2ccccc21 (stereo not shown) [Compound 7]	114	
O=C1/C(=C/c2ccccc2)C(NC2CCCCC2)c2ccccc21 (single isomer, unassigned; (-)) [(−)-BCI]	156	activity of the levorotatory enantiomer relative to the dextrorotatory form [1]: twice
O=C1/C(=C/c2ccccc2)Cc2ccccc21 [Compound 1, (E)-2-benzylidene-2,3-dihydro-1H-inden-1-one]	0	in vivo activity relative to BCI, in words [1]: inactive; d2EGFP fluorescence in treated transgenic embryos [2]: inactive
O=C1/C(=C/c2ccccc2)C(NC2CCCCCC2)c2ccccc21 (stereo not shown) [Compound 5, 2-Benzylidene-3-cycloheptylaminoindan-1-one]	127	
O=C1/C(=C/c2ccccc2)C(N2CCOCC2)c2ccccc21 (stereo not shown) [Compound 9]	114	
O=C1N[C@H]2[C@H](CS[C@H]2CCCCC(=O)N[C@H]2CC[C@H](NC3/C(=C\c4ccccc4)C(=O)c4ccccc43)CC2)N1 (stereo partly shown) [Compound 19]	No activity,	in vivo activity relative to BCI, in words [1]: no effect on FGF signaling
O=C1/C(=C/c2ccccc2)C(N2CCNCC2)c2ccccc21 (stereo not shown) [Compound 11]	22	
O=C1/C(=C/c2ccc(Cl)cc2)C(NC2CCCCC2)c2ccccc21 (stereo not shown) [Compound 14]	52	activity as compared to BCI [1]: 52%
[Na+].[Na+].[Na+].[O]=[V]([O-])([O-])[O-] [Sodium orthovanadate, reference compound]		inhibition of Cdc25B (Cdc25B): 100%; inhibition of PTP1B (PTP1B): 100%; inhibition of Dusp3/VHR (Dusp3/VHR): 100%
O=C1/C(=C/c2ccccc2)C(Nc2ccccc2)c2ccccc21 (stereo not shown) [Compound 6]	7	
CC(=O)N1CCN(C2/C(=C\c3ccccc3)C(=O)c3ccccc32)CC1 (stereo not shown) [Compound 13]	47	
O=C1/C(=C/c2ccccc2)C(NC2CCCC2)c2ccccc21 (stereo not shown) [Compound 4]	123	
O=C1C(SCCO)=C(SCCO)C(=O)c2ccccc21 [NSC95397, 2,3-bis(2-hydroxyethylthio)naphthalene-1,4-dione, reference compound]		effect on basal Dusp6 activity toward OMFP (Dusp6): blocked basal Dusp6 activity toward OMFP
O=C1/C(=C/c2ccccc2)C(N2CCSCC2)c2ccccc21 (stereo not shown) [Compound 10]	27	
O[C@H]1/C(=C/c2ccccc2)[C@H](NC2CCCCC2)c2ccccc21 (stereo in doubt) [Compound 18, 2-Benzylidene-3-cyclohexylaminoindan-1-ol]	26	
